Values quoted from earlier work as cited in patent publication US9631212B2, “Gene cluster for biosynthesis of cornexistin and hydroxycornexistin” (BASF SE, priority 2012, dated 2017).
Read-outs that look alike come from different tables or passages of the source.

Tests used:
[1] = in vivo

Compound	activity towards corn plants (corn plants)	activity as a herbicide [1]	activity towards corn plants (corn plants; listed as Cornexistin)	activity as a herbicide ([1]; listed as Cornexistin)
CCC[C@H]1C2=C(C/C(=C/CO)[C@@H](O)CC(=O)[C@H]1O)C(=O)OC2=O [hydroxycornexistin]	harmless to corn plants	highly potent herbicides		
C/C=C1/CC2=C(C(=O)OC2=O)[C@H](CCC)[C@H](O)C(=O)C[C@@H]1O [cornexistin]	harmless to corn plants	highly potent herbicides	relative inactivity towards corn plants	good activity as a herbicide
